The values that follow come from US11773094B2, “Farnesoid X receptor agonists and uses thereof” (Metacrine, Inc., priority 2018, dated 2023).

The assay deals with T1, hFXR (Homo sapiens, UniProt Q96RI1).
T1 construct: expressed in transfected cells; host or cells: CV-1 cells
T1 sequence (Q96RI1 1-486): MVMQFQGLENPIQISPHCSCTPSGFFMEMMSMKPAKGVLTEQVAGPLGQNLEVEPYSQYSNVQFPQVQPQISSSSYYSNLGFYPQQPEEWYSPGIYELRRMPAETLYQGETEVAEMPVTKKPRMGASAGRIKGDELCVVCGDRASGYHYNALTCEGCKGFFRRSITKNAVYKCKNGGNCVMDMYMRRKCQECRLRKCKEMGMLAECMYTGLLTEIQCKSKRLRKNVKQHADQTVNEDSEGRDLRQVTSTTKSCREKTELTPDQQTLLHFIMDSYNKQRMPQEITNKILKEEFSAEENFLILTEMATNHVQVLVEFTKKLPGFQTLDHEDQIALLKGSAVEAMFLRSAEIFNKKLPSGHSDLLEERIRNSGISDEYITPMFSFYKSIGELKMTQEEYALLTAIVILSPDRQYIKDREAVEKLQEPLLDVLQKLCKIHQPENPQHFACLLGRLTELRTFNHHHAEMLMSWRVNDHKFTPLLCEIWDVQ
T1 sequence (P19793 1-462 partner): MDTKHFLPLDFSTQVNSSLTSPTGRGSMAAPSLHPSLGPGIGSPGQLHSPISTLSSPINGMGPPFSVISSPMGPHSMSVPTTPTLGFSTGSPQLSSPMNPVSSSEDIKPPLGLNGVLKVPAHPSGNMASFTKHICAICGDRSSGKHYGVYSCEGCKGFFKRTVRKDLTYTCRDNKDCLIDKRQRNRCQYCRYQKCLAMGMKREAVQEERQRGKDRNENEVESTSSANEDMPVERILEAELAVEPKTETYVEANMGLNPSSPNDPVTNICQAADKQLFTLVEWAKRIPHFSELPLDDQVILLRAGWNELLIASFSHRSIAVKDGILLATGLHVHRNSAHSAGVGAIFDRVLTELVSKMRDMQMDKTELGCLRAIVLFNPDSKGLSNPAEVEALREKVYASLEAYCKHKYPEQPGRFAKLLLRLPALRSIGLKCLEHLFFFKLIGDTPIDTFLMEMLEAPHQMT
Nature of the assay: In Vitro FXR Assay (TK): TK-ECRE-luc reporter in transfected CV-1 cells. The format is cell-based. Conditions: CV-1 cells transfected with hFXR, hRXR, pCMX-YFP, 18 hrs incubation, luminescence. As for the experimental part:
Example B-1: In Vitro FXR Assay (TK)
CV-1 cells were seeded at a density of 2,000,000 cells in a T175 flask with DMEM+10% charcoal double-stripped FBS and incubated at 37° C. in 5% CO2 for 18 h (O/N).
After 18 h of incubation, the medium in the T175 flask was changed with fresh DMEM+10% charcoal super-stripped serum. In a polypropylene tube, 2500 μL OptiMEM (Life Technologies, Cat #31985-062) was combined with expression plasmids for hFXR, hRXR, TK-ECRE-luc and pCMX-YFP. The tube was then briefly vortexed and incubated at room temperature for 5 minutes. Transfection reagent (X-tremeGENE HP from Roche, Cat #06 366 236 001) was added to the OptiMEM/plasmid mixture vortexed and incubated at room temperature for 20 minutes. Following incubation, the transfection reagent/DNA mixture complex was added to cells in the T175 flask and the cells were incubated at 37° C. in 5% CO2 for 18 h (O/N).
Compounds were serially diluted in DMSO and added to transfected CV-1 cells. The cells were then incubated for 18 hrs. The next day cells were lysed and examined for luminescence.

Structures are written as SMILES.

For orientation: EC50 means the concentration needed to bring the measured effect to its halfway point. In turn, `CCC(C)(CC)n1cc(-c2ccnc(N(CC34CCC(c5ccc(OC)c(C)c5)(CC3)CC4)C(=O)[C@H]3CC[C@H](OC(=O)N4CCC(O)CC4)CC3)c2)cn1` [Compound 4.06, 4-(((4-(4-Methoxy-3-methylphenyl)bicyclo[2.2.2]octan-1-yl)methyl)(4-(1-(3-methylpentan-3-yl)-1H-pyrazol-4-yl)pyridin-2-yl)carbamoyl)cyclohexyl trans-4-hydroxypiperidine-1-carboxylate] gave an EC50 of at most 10 nM.

For the compound `COc1ccc(C23CCC(CN(c4cncc(-c5cnn(C(C)(C)C)c5)c4)C(=O)[C@H]4CC[C@H](OC(=O)N5CC(O)C5)CC4)(CC2)CC3)cc1C` [Compound 1.14, 4-((5-(1-(tert-Butyl)-1H-pyrazol-4-yl)pyridin-3-yl)((4-(4-methoxy-3-methylphenyl)bicyclo[2.2.2]octan-1-yl)methyl)carbamoyl) (trans-cyclohexyl) 3-hydroxyazetidine-1-carboxylate], the EC50 was at most 10 nM.

`COc1ccc(C23CCC(CN(c4cc(-c5cnc(C(C)(C)C)s5)ccn4)C(=O)[C@H]4CC[C@H](OC(=O)NCCO)CC4)(CC2)CC3)cc1C` [Compound 2.06, 4-((4-(2-(tert-Butyl)thiazol-5-yl)pyridin-2-yl)((4-(4-methoxy-3-methylphenyl)bicyclo[2.2.2]octan-1-yl)methyl)carbamoyl)cyclohexyl (2-hydroxyethyl)trans-carbamate] registered an EC50 of at most 10 nM.

Regarding `COc1ccc(C23CCC(CN(c4cc(-c5coc(C(C)(C)C)n5)ccn4)C(=O)[C@H]4CC[C@H](OC(=O)NC5COC5)CC4)(CC2)CC3)cc1C` [Compound 2.18, 4-((4-(2-(tert-Butyl)oxazol-4-yl)pyridin-2-yl)((4-(4-methoxy-3-methylphenyl)bicyclo[2.2.2]octan-1-yl)methyl)carbamoyl) (trans-cyclohexyl) oxetan-3-ylcarbamate], the EC50 fell in the range of 10 to 1000 nM.

For the compound `COc1ccc(C23CCC(CN(c4cc(-c5cnc(C(C)(C)C)s5)ccn4)C(=O)[C@H]4CC[C@H](OC(=O)N5CCC(N(C)C)C5)CC4)(CC2)CC3)cc1C` (stereo partly drawn) [Compound 2.09, 4-((4-(2-(tert-Butyl)thiazol-5-yl)pyridin-2-yl)((4-(4-methoxy-3-methylphenyl)bicyclo[2.2.2]octan-1-yl)methyl)carbamoyl)cyclohexyl 3-(dimethylamino)pyrrolidine- trans-1-carboxylate], the EC50 is 10 to 1000 nM.

In the case of `COc1ccc(C23CCC(CN(c4cc(-c5cnn(C(C)(C)C)c5)ccn4)C(=O)[C@H]4CC[C@H](OC(=O)NC5CCSCC5)CC4)(CC2)CC3)cc1C` [Compound 2.29, 4-((4-(1-(tert-Butyl)-1H-pyrazol-4-yl)pyridin-2-yl)((4-(4-methoxy-3-methylphenyl)bicyclo[2.2.2]octan-1-yl)methyl)carbamoyl)cyclohexyl trans-(tetrahydro-2H-thiopyran-4-yl)carbamate], the EC50 was in the range of 10 to 1000 nM.

Regarding `COc1ccc(C23CCC(CN(c4cc(-c5cnn(C(C)(C)C)c5)ccn4)C(=O)[C@H]4CC[C@H](OC(=O)N5CCC(O)C5)CC4)(CC2)CC3)cc1C` (stereo partly drawn) [Compound 3.03, 4-((4-(1-(tert-Butyl)-1H-pyrazol-4-yl)pyridin-2-yl)((4-(4-methoxy-3-methylphenyl)bicyclo[2.2.2]octan-1-yl)methyl)carbamoyl) (trans-cyclohexyl) 3-hydroxypyrrolidine-1-carboxylate], the EC50 was at most 10 nM.

In the case of `COc1ccc(C23CCC(CN(c4cccc(-c5cnn(C(C)(C)C)c5)n4)C(=O)[C@H]4CC[C@H](OC(=O)N5CC(O)C5)CC4)(CC2)CC3)cc1C` [Compound 1.15, 4-((6-(1-(tert-Butyl)-1H-pyrazol-4-yl)pyridin-2-yl)((4-(4-methoxy-3-methylphenyl)bicyclo[2.2.2]octan-1-yl)methyl)carbamoyl) (trans-cyclohexyl) 3-hydroxyazetidine-1-carboxylate], the EC50 lay within 10 to 1000 nM.

Compound `CCC(C)(C)n1cc(-c2ccnc(N(CC34CCC(c5ccc(OC)c(C)c5)(CC3)CC4)C(=O)[C@H]3CC[C@H](OC(=O)N4CC(C)(O)C4)CC3)c2)cn1` [Compound 4.01, 4-(((4-(4-Methoxy-3-methylphenyl)bicyclo[2.2.2]octan-1-yl)methyl)(4-(1-(tert-pentyl)-1H-pyrazol-4-yl)pyridin-2-yl)carbamoyl) cyclohexyl trans-3-hydroxy-3-methylazetidine-1-carboxylate] showed an EC50 of at most 10 nM.

For the compound `COc1ccc([C@H]2CC[C@H](CN(c3cc(-c4cnn(C(C)(C)C)c4)ccn3)C(=O)[C@H]3CC[C@H](OC(=O)N4CCC(O)CC4)CC3)CC2)cc1C` [Compound 1.10, trans-4-((4-(1-(tert-Butyl)-1H-pyrazol-4-yl)pyridin-2-yl)((trans-4-(4-methoxy-3-methylphenyl)cyclohexyl)methyl)carbamoyl) cyclohexyl 4-hydroxypiperidine-1-carboxylate], the EC50 was 10 to 1000 nM.

`COc1ccc([C@H]2CC[C@H](CN(c3cc(-c4coc(C(C)(C)C)n4)ccn3)C(=O)[C@H]3CC[C@H](OC(=O)N4CCC(O)CC4)CC3)CC2)cc1C` [Compound 1.06, trans-4-((4-(2-(tert-Butyl)oxazol-4-yl)pyridin-2-yl)(((trans)-4-(4-methoxy-3-methylphenyl)cyclohexyl)methyl)carbamoyl) cyclohexyl 4-hydroxypiperidine-1-carboxylate] gave an EC50 of 10 to 1000 nM.

`COc1ccc(C23CCC(CN(c4cc(-c5cnn(C(C)(C)C)c5)ccn4)C(=O)[C@H]4CC[C@H](OC(=O)N5CC(OCCO)C5)CC4)(CC2)CC3)cc1C` [Compound 2.25, 4-((4-(1-(tert-Butyl)-1H-pyrazol-4-yl)pyridin-2-yl)((4-(4-methoxy-3-methylphenyl)bicyclo[2.2.2]octan-1-yl)methyl)carbamoyl) (trans-cyclohexyl) 3-(2-hydroxyethoxy)azetidine-1-carboxylate] gave an EC50 of at most 10 nM.

`CN(C)c1ccc(C23CCC(CN(c4cc(-c5cnn(C(C)(C)C)c5)ccn4)C(=O)[C@H]4CC[C@H](OC(=O)N5CC(O)C5)CC4)(CC2)CC3)cn1` [Compound 3.06, 4-((4-(1-(tert-Butyl)-1H-pyrazol-4-yl)pyridin-2-yl)((4-(6-(dimethylamino)pyridin-3-yl)bicyclo[2.2.2]octan-1-yl)methyl)carbamoyl) (trans-cyclohexyl) 3-hydroxyazetidine-1-carboxylate] displayed a concentration giving a half-maximal response (EC50) of 10 to 1000 nM.

On to `COc1ccc(C23CCC(CN(c4cc(-c5cnc(C(C)(C)C)s5)ccn4)C(=O)[C@H]4CC[C@H](OC(=O)N5CC(OCCO)C5)CC4)(CC2)CC3)cc1C` [Compound 2.07, 4-((4-(2-(tert-Butyl)thiazol-5-yl)pyridin-2-yl)((4-(4-methoxy-3-methylphenyl)bicyclo[2.2.2]octan-1-yl)methyl)carbamoyl) (trans-cyclohexyl) 3-(2-hydroxyethoxy)azetidine-1-carboxylate], for which the EC50 is at most 10 nM.

`COc1ccc(C23CCC(CN(c4cc(-c5cnc(C(C)(C)C)s5)ccn4)C(=O)[C@H]4CC[C@H](OC(=O)N5CC(S(C)(=O)=O)C5)CC4)(CC2)CC3)cc1C` [Compound 2.03, 4-((4-(2-(tert-Butyl)thiazol-5-yl)pyridin-2-yl)((4-(4-methoxy-3-methylphenyl)bicyclo[2.2.2]octan-1-yl)methyl)carbamoyl) (trans-cyclohexyl) 3-(methylsulfonyl)azetidine-1-carboxylate] yielded an EC50 of at most 10 nM.

In the case of `COc1ccc(C23CCC(CN(c4cc(-c5cnc(C(C)(C)C)s5)ccn4)C(=O)[C@H]4CC[C@H](OC(=O)N5CC[C@H]5CO)CC4)(CC2)CC3)cc1C` [Compound 2.10, (S)-4-((4-(2-(tert-Butyl)thiazol-5-yl)pyridin-2-yl)((4-(4-methoxy-3-methylphenyl)bicyclo[2.2.2]octan-1-yl)methyl)carbamoyl)cyclohexyl 2-(hydroxymethyl)azetidine- trans-1-carboxylate], the EC50 is at most 10 nM.
